SMILES strings stand for the structures.

Tested on in one data set: not listed separately
Put plainly: Cytotoxicity against human WI38 cells assessed as inhibition of proliferation after 24 hrs by SRB assay. As to conditions: WI-38, 24 h. It counts as cell-based.
In the case of `CC[C@H]1CN2CCc3cc(OC)c(OC)cc3[C@@H]2C[C@@H]1C[C@H]1NCCc2cc(OC)c(OC)cc21` [EMETINE], the IC50 stood at 0.05 µM.

For the compound `C[C@H]1[C@@H](OC(=O)c2ccc(/C=C/C(=O)c3ccc(Cl)c(Cl)c3Cl)cc2)O[C@@H]2O[C@]3(C)CC[C@H]4[C@H](C)CC[C@@H]1[C@@]24OO3`, the IC50 was 61.9 µM.

For the compound `C[C@@H]1CC[C@H]2[C@@H](C)C(OC(=O)c3ccc(/C=C/C(=O)c4ccccc4)cc3)O[C@@H]3O[C@]4(C)CC[C@@H]1[C@]32OO4` (stereo partly drawn), the concentration for half-maximal inhibition (IC50) is over 100 µM.

Consider `Cc1ccc(C(=O)/C=C/c2ccc(C(=O)O[C@@H]3O[C@@H]4O[C@]5(C)CC[C@H]6[C@H](C)CC[C@@H]([C@H]3C)[C@@]46OO5)cc2)o1`, for which the 50% inhibitory concentration (IC50) is 72.2 µM.

Another data set deals with UACC-62. Put plainly: Selectivity index, ratio of IC50 for human WI38 cells to IC50 for human UACC62 cells. The data set is classed as functional.
Conditions: not given
For the compound `C[C@H]1[C@@H](OC(=O)c2ccc(/C=C/C(=O)c3ccc(Cl)c(Cl)c3Cl)cc2)O[C@@H]2O[C@]3(C)CC[C@H]4[C@H](C)CC[C@@H]1[C@@]24OO3`, the “Ratio IC50” value is 2.2.

`C[C@@H]1CC[C@H]2[C@@H](C)C(OC(=O)c3ccc(/C=C/C(=O)c4ccccc4)cc3)O[C@@H]3O[C@]4(C)CC[C@@H]1[C@]32OO4` (stereo partly drawn): the “Ratio IC50” value was over 19.

For `Cc1ccc(C(=O)/C=C/c2ccc(C(=O)O[C@@H]3O[C@@H]4O[C@]5(C)CC[C@H]6[C@H](C)CC[C@@H]([C@H]3C)[C@@]46OO5)cc2)o1`, the “Ratio IC50” value turned out to be 21.9.

Tested on in a further data set: not listed separately
As to the kind of experiment: Selectivity index, ratio of IC50 for human WI38 cells to IC50 for chloroquine-sensitive Plasmodium falciparum 3D7. The data set is classed as toxicity, cell-based, WI-38. As to conditions: read-out: Ratio IC50.
For the compound `C[C@H]1[C@@H](OC(=O)c2ccc(/C=C/C(=O)c3ccc(Cl)c(Cl)c3Cl)cc2)O[C@@H]2O[C@]3(C)CC[C@H]4[C@H](C)CC[C@@H]1[C@@]24OO3`, the selectivity ratio was 5800.

As for `C[C@@H]1CC[C@H]2[C@@H](C)C(OC(=O)c3ccc(/C=C/C(=O)c4ccccc4)cc3)O[C@@H]3O[C@]4(C)CC[C@@H]1[C@]32OO4` (stereo partly drawn), the selectivity ratio was over 10300.

With `Cc1ccc(C(=O)/C=C/c2ccc(C(=O)O[C@@H]3O[C@@H]4O[C@]5(C)CC[C@H]6[C@H](C)CC[C@@H]([C@H]3C)[C@@]46OO5)cc2)o1`, the selectivity ratio was determined as 36500.

Tested on in a further data set: not listed separately
Put plainly: Resistance index, ratio of IC50 for chloroquine-resistant Plasmodium falciparum W2 to IC50 for chloroquine-sensitive Plasmodium falciparum 3D7.
Conditions: not given
The data set is classed as functional.
`C[C@H]1[C@@H](OC(=O)c2ccc(/C=C/C(=O)c3ccc(Cl)c(Cl)c3Cl)cc2)O[C@@H]2O[C@]3(C)CC[C@H]4[C@H](C)CC[C@@H]1[C@@]24OO3`: the Ratio IC50 is 0.5.

As to `C[C@@H]1CC[C@H]2[C@@H](C)C(OC(=O)c3ccc(/C=C/C(=O)c4ccccc4)cc3)O[C@@H]3O[C@]4(C)CC[C@@H]1[C@]32OO4` (stereo partly drawn), the Ratio IC50 turned out to be 1.1.

Consider `Cc1ccc(C(=O)/C=C/c2ccc(C(=O)O[C@@H]3O[C@@H]4O[C@]5(C)CC[C@H]6[C@H](C)CC[C@@H]([C@H]3C)[C@@]46OO5)cc2)o1`, for which the Ratio IC50 amounted to 0.7.

Tested on in a further data set: not listed separately
As to the kind of experiment: Selectivity index, ratio of IC50 for chloroquine-resistant Plasmodium falciparum W2 to IC50 for human MCF7 cells.
Conditions: not given
For `C[C@H]1[C@@H](OC(=O)c2ccc(/C=C/C(=O)c3ccc(Cl)c(Cl)c3Cl)cc2)O[C@@H]2O[C@]3(C)CC[C@H]4[C@H](C)CC[C@@H]1[C@@]24OO3`, the “Ratio IC50” value was found to be 2549.7.

With `C[C@@H]1CC[C@H]2[C@@H](C)C(OC(=O)c3ccc(/C=C/C(=O)c4ccccc4)cc3)O[C@@H]3O[C@]4(C)CC[C@@H]1[C@]32OO4` (stereo partly drawn), the “Ratio IC50” value is recorded as over 339.

As for `Cc1ccc(C(=O)/C=C/c2ccc(C(=O)O[C@@H]3O[C@@H]4O[C@]5(C)CC[C@H]6[C@H](C)CC[C@@H]([C@H]3C)[C@@]46OO5)cc2)o1`, the “Ratio IC50” value stood at 2325.9.

The next data set has as its system MCF7. Put plainly: Anticancer activity against human MCF7 cells assessed as inhibition of cell growth after 24 hrs by SRB assay. It counts as functional, cell-based. The conditions noted are these: MCF7, 24 h.
As to `C[C@H]1[C@@H](OC(=O)c2ccc(/C=C/C(=O)c3ccc(Cl)c(Cl)c3Cl)cc2)O[C@@H]2O[C@]3(C)CC[C@H]4[C@H](C)CC[C@@H]1[C@@]24OO3`, the IC50 was 14.9 µM.

In the case of `C[C@@H]1CC[C@H]2[C@@H](C)C(OC(=O)c3ccc(/C=C/C(=O)c4ccccc4)cc3)O[C@@H]3O[C@]4(C)CC[C@@H]1[C@]32OO4` (stereo partly drawn), the IC50 turned out to be 3.59 µM.

`Cc1ccc(C(=O)/C=C/c2ccc(C(=O)O[C@@H]3O[C@@H]4O[C@]5(C)CC[C@H]6[C@H](C)CC[C@@H]([C@H]3C)[C@@]46OO5)cc2)o1`: the IC50 came to 3.42 µM.

The next data set relates to WI-38. Put plainly: Selectivity index, ratio of IC50 for human WI38 cells to IC50 for human TK10 cells.
Conditions: not given
It counts as functional.
In the case of `C[C@H]1[C@@H](OC(=O)c2ccc(/C=C/C(=O)c3ccc(Cl)c(Cl)c3Cl)cc2)O[C@@H]2O[C@]3(C)CC[C@H]4[C@H](C)CC[C@@H]1[C@@]24OO3`, the “Ratio IC50” value is 1.2.

For `C[C@@H]1CC[C@H]2[C@@H](C)C(OC(=O)c3ccc(/C=C/C(=O)c4ccccc4)cc3)O[C@@H]3O[C@]4(C)CC[C@@H]1[C@]32OO4` (stereo partly drawn), the “Ratio IC50” value was over 12.

`Cc1ccc(C(=O)/C=C/c2ccc(C(=O)O[C@@H]3O[C@@H]4O[C@]5(C)CC[C@H]6[C@H](C)CC[C@@H]([C@H]3C)[C@@]46OO5)cc2)o1`: the “Ratio IC50” value is 20.

Tested on in the next data set: not listed separately
As to the kind of experiment: Selectivity index, ratio of IC50 for chloroquine-resistant Plasmodium falciparum W2 to IC50 for human UACC62 cells. Also on record: species or system UACC-62.
Conditions: not given
As to `C[C@H]1[C@@H](OC(=O)c2ccc(/C=C/C(=O)c3ccc(Cl)c(Cl)c3Cl)cc2)O[C@@H]2O[C@]3(C)CC[C@H]4[C@H](C)CC[C@@H]1[C@@]24OO3`, the “Ratio IC50” value is reported as 4873.3.

For the compound `C[C@@H]1CC[C@H]2[C@@H](C)C(OC(=O)c3ccc(/C=C/C(=O)c4ccccc4)cc3)O[C@@H]3O[C@]4(C)CC[C@@H]1[C@]32OO4` (stereo partly drawn), the “Ratio IC50” value is over 505.

In the case of `Cc1ccc(C(=O)/C=C/c2ccc(C(=O)O[C@@H]3O[C@@H]4O[C@]5(C)CC[C@H]6[C@H](C)CC[C@@H]([C@H]3C)[C@@]46OO5)cc2)o1`, the “Ratio IC50” value is listed as 2240.1.

The next data set has as its system TK-10. As to the kind of experiment: Anticancer activity against human TK10 cells assessed as inhibition of cell growth after 24 hrs by SRB assay. The data set is classed as functional, cell-based. As to conditions: TK-10, 24 h.
Turning to `C[C@H]1[C@@H](OC(=O)c2ccc(/C=C/C(=O)c3ccc(Cl)c(Cl)c3Cl)cc2)O[C@@H]2O[C@]3(C)CC[C@H]4[C@H](C)CC[C@@H]1[C@@]24OO3`, the IC50 worked out at 53.7 µM.

For the compound `C[C@@H]1CC[C@H]2[C@@H](C)C(OC(=O)c3ccc(/C=C/C(=O)c4ccccc4)cc3)O[C@@H]3O[C@]4(C)CC[C@@H]1[C@]32OO4` (stereo partly drawn), the IC50 was 8.32 µM.

`Cc1ccc(C(=O)/C=C/c2ccc(C(=O)O[C@@H]3O[C@@H]4O[C@]5(C)CC[C@H]6[C@H](C)CC[C@@H]([C@H]3C)[C@@]46OO5)cc2)o1`: the IC50 amounted to 3.6 µM.

Tested on in another data set: not listed separately
Put plainly: Anticancer activity against human UACC62 cells assessed as inhibition of cell growth after 24 hrs by SRB assay. As to conditions: UACC-62, 24 h. It counts as functional, cell-based.
Turning to `C[C@H]1[C@@H](OC(=O)c2ccc(/C=C/C(=O)c3ccc(Cl)c(Cl)c3Cl)cc2)O[C@@H]2O[C@]3(C)CC[C@H]4[C@H](C)CC[C@@H]1[C@@]24OO3`, the concentration for half-maximal inhibition (IC50) stood at 28.5 µM.

Turning to `C[C@@H]1CC[C@H]2[C@@H](C)C(OC(=O)c3ccc(/C=C/C(=O)c4ccccc4)cc3)O[C@@H]3O[C@]4(C)CC[C@@H]1[C@]32OO4` (stereo partly drawn), the IC50 was 5.35 µM.

As for `Cc1ccc(C(=O)/C=C/c2ccc(C(=O)O[C@@H]3O[C@@H]4O[C@]5(C)CC[C@H]6[C@H](C)CC[C@@H]([C@H]3C)[C@@]46OO5)cc2)o1`, the IC50 was found to be 3.29 µM.

For a further data set, the system named is MCF7. As to the kind of experiment: Selectivity index, ratio of IC50 for human WI38 cells to IC50 for human MCF7 cells. It counts as functional.
Conditions: not given
For `C[C@H]1[C@@H](OC(=O)c2ccc(/C=C/C(=O)c3ccc(Cl)c(Cl)c3Cl)cc2)O[C@@H]2O[C@]3(C)CC[C@H]4[C@H](C)CC[C@@H]1[C@@]24OO3`, the “Ratio IC50” value was determined as 4.2.

As to `C[C@@H]1CC[C@H]2[C@@H](C)C(OC(=O)c3ccc(/C=C/C(=O)c4ccccc4)cc3)O[C@@H]3O[C@]4(C)CC[C@@H]1[C@]32OO4` (stereo partly drawn), the “Ratio IC50” value is reported as over 28.

On to `Cc1ccc(C(=O)/C=C/c2ccc(C(=O)O[C@@H]3O[C@@H]4O[C@]5(C)CC[C@H]6[C@H](C)CC[C@@H]([C@H]3C)[C@@]46OO5)cc2)o1`, for which the “Ratio IC50” value is reported as 21.1.

The subject of another data set is Plasmodium falciparum. As to the kind of experiment: Antimalarial activity against chloroquine-resistant Plasmodium falciparum W2 assessed as inhibition of parasite proliferation after 96 hrs by SYBR Green I-based fluorescence method. As to conditions: W2, 96 h. It counts as functional, organism-based.
For `C[C@H]1[C@@H](OC(=O)c2ccc(/C=C/C(=O)c3ccc(Cl)c(Cl)c3Cl)cc2)O[C@@H]2O[C@]3(C)CC[C@H]4[C@H](C)CC[C@@H]1[C@@]24OO3`, the IC50 worked out at 0.00584 µM.

Take `C[C@@H]1CC[C@H]2[C@@H](C)C(OC(=O)c3ccc(/C=C/C(=O)c4ccccc4)cc3)O[C@@H]3O[C@]4(C)CC[C@@H]1[C@]32OO4` (stereo partly drawn): the half-maximal inhibitory concentration (IC50) worked out at 0.0106 µM.

For `Cc1ccc(C(=O)/C=C/c2ccc(C(=O)O[C@@H]3O[C@@H]4O[C@]5(C)CC[C@H]6[C@H](C)CC[C@@H]([C@H]3C)[C@@]46OO5)cc2)o1`, the IC50 stood at 0.00147 µM.

For another data set, the system named is Plasmodium falciparum. Put plainly: Antimalarial activity against chloroquine-sensitive Plasmodium falciparum 3D7 assessed as inhibition of parasite proliferation after 96 hrs by SYBR Green I-based fluorescence method. It counts as functional, organism-based. The conditions noted are these: 3D7, 96 h.
With `C[C@H]1[C@@H](OC(=O)c2ccc(/C=C/C(=O)c3ccc(Cl)c(Cl)c3Cl)cc2)O[C@@H]2O[C@]3(C)CC[C@H]4[C@H](C)CC[C@@H]1[C@@]24OO3`, the half-maximal inhibitory concentration (IC50) is 0.0107 µM.

In the case of `C[C@@H]1CC[C@H]2[C@@H](C)C(OC(=O)c3ccc(/C=C/C(=O)c4ccccc4)cc3)O[C@@H]3O[C@]4(C)CC[C@@H]1[C@]32OO4` (stereo partly drawn), the IC50 amounted to 0.00973 µM.

`Cc1ccc(C(=O)/C=C/c2ccc(C(=O)O[C@@H]3O[C@@H]4O[C@]5(C)CC[C@H]6[C@H](C)CC[C@@H]([C@H]3C)[C@@]46OO5)cc2)o1`: the half-inhibitory concentration (IC50) was 0.00198 µM.

Tested on in a further data set: not listed separately
Put plainly: Selectivity index, ratio of IC50 for chloroquine-resistant Plasmodium falciparum W2 to IC50 for human TK10 cells. Set-up: species or system TK-10.
Conditions: not given
For the compound `C[C@H]1[C@@H](OC(=O)c2ccc(/C=C/C(=O)c3ccc(Cl)c(Cl)c3Cl)cc2)O[C@@H]2O[C@]3(C)CC[C@H]4[C@H](C)CC[C@@H]1[C@@]24OO3`, the “Ratio IC50” value came to 9198.6.

In the case of `C[C@@H]1CC[C@H]2[C@@H](C)C(OC(=O)c3ccc(/C=C/C(=O)c4ccccc4)cc3)O[C@@H]3O[C@]4(C)CC[C@@H]1[C@]32OO4` (stereo partly drawn), the “Ratio IC50” value was over 786.

Consider `Cc1ccc(C(=O)/C=C/c2ccc(C(=O)O[C@@H]3O[C@@H]4O[C@]5(C)CC[C@H]6[C@H](C)CC[C@@H]([C@H]3C)[C@@]46OO5)cc2)o1`, for which the “Ratio IC50” value was determined as 2451.7.

The values above are taken from ChEMBL document CHEMBL3396954, “Synthesis and in vitro biological evaluation of dihydroartemisinyl-chalcone esters” (Eur J Med Chem, 2015).
